Assay results published in article PMC6403800 (Polymers, 2018).
Read-outs that look alike come from different tables or passages of the source. Peptide text beside a SMILES is read from it.

What was measured:
[1] = molecular target: T1, α-hemolysin (α-HL) nanopore (Staphylococcus aureus, UniProt P09616)
[2] = molecular target: T1, α-hemolysin (α-HL) nanopore; test: biochemical; format: binding; conditions: for kon: extrapolated to ΔV→0 by fit kon(ΔV)=kon(0)exp(aΔV)

T1 sequence (P09616 27-319 limits assumed): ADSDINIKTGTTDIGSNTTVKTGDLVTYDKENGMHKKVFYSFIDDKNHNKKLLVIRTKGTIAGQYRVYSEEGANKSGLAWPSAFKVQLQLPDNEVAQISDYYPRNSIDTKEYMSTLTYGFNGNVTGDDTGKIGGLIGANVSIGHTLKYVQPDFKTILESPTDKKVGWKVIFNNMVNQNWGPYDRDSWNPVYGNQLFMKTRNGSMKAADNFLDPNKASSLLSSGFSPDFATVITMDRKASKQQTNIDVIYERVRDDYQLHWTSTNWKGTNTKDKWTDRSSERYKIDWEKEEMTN

Molecule	relative blockade extent ΔIblock,1/Iopen (residual current I1) ([1]; deeper blockade sub-state I1, Fig. 1: 20 µM trans-added, ΔV = +100 mV, 2 M KCl, 10 mM HEPES, pH 7, ~23 °C, kind of spread not stated)	relative blockade extent ΔIblock,2/Iopen (residual current I2) ([1]; shallower blockade sub-state I2, Fig. 1: 20 µM trans-added, ΔV = +100 mV, 2 M KCl, 10 mM HEPES, pH 7, ~23 °C, kind of spread not stated)	dissociation rate, cis vs trans entry with preserved axial orientation, in words ([2]; at +ΔV (Figure 7a,d) and at −ΔV (Figure 7b,c), 30 μM)	dissociation, comparison of polarity in words ([2]; cis-added, +ΔV vs −ΔV (Figure 7c,d), 30 μM)	association rates trans vs cis side, in words ([2]; high voltages (|ΔV| > 100 mV), 30 μM)	association rate kon, ranking by addition side and voltage polarity ([2]; high voltages (|ΔV| > 100 mV), 30 μM peptide, cis or trans addition)	kon ([2]; pH 7, read-out: near equilibrium association rate constant kon(0), cis-added, +ΔV, 30 μM peptide, 2 M KCl, 10 mM HEPES, pH 7, ~23 °C) [M⁻¹ s⁻¹]	kon ([2]; pH 7, read-out: near equilibrium association rate constant kon(0), cis-added, −ΔV, 30 μM peptide, 2 M KCl, 10 mM HEPES, pH 7, ~23 °C) [M⁻¹ s⁻¹]	kon ([2]; pH 7, read-out: near equilibrium association rate constant kon(0), trans-added, +ΔV, 30 μM peptide, 2 M KCl, 10 mM HEPES, pH 7, ~23 °C) [M⁻¹ s⁻¹]	kon ([2]; pH 7, read-out: near equilibrium association rate constant kon(0), trans-added, −ΔV, 30 μM peptide, 2 M KCl, 10 mM HEPES, pH 7, ~23 °C) [M⁻¹ s⁻¹]	dissociation rate constant koff, comparison of polarity in words ([2]; trans-added, +ΔV vs −ΔV (Figure 7a,b), 30 μM)	association rate constant kon, comparison in words ([2]; trans-added, Pe6 vs Pe4, voltage-dependent (Figure 4a,c), 2 M KCl, 10 mM HEPES, pH 7, ~23 °C)	trapping time inside α-HL, comparison in words ([2]; trans-added, as the positive voltage increases (+80, +90, +100 mV), Pe6 vs Pe4, 2 M KCl, pH 7)	association rate, comparison of polarity in words ([2]; trans-added, relatively low transmembrane potential values (Figure 6a,b insets), 30 μM)	near equilibrium kon(0), ranking by addition side and voltage polarity ([2]; ΔV→0, cis or trans addition, 30 μM peptide)	relative blockade extent ΔIblock,1/Iopen, comparison in words [1]	relative blockade extent ΔIblock,1/Iopen (residual current I1) ([1]; pH 7)	relative blockade extent ΔIblock,2/Iopen (residual current I2) ([1]; pH 7)	dissociation rate constant koff, comparison in words ([2]; pH 7)
CC(=O)N[C@@H](CCCNC(=N)N)C(=O)N[C@@H](CCCNC(=N)N)C(=O)N[C@@H](CCCNC(=N)N)C(=O)N[C@@H](CCCNC(=N)N)C(=O)N[C@@H](CCCNC(=N)N)C(=O)N[C@@H](CCCNC(=N)N)C(=O)N[C@@H](CCCNC(=N)N)C(=O)N[C@@H](CCCNC(=N)N)C(=O)N[C@@H](CCCNC(=N)N)C(=O)N[C@@H](CCCNC(=N)N)C(=O)N[C@@H](CCCNC(=N)N)C(=O)N[C@@H](CCCNC(=N)N)C(=O)N[C@@H](CO)C(=O)N[C@@H](CO)C(=O)N[C@@H](CO)C(=O)N[C@@H](CO)C(=O)N[C@@H](CO)C(=O)N[C@@H](CO)C(=O)N[C@@H](CCC(=O)O)C(=O)N[C@@H](CCC(=O)O)C(=O)N[C@@H](CCC(=O)O)C(=O)N[C@@H](CCC(=O)O)C(=O)N[C@@H](CCC(=O)O)C(=O)N[C@@H](CCC(=O)O)C(=O)N[C@@H](CCC(=O)O)C(=O)N[C@@H](CCC(=O)O)C(=O)N[C@@H](CCC(=O)O)C(=O)N[C@@H](CCC(=O)O)C(=O)N[C@@H](CCC(=O)O)C(=O)N[C@@H](CCC(=O)O)C(N)=O [Pe6, Ac–(R)12–(S)6–(E)12–NH2] (Ac-RRRRRRRRRRRRSSSSSSEEEEEEEEEEEE-NH2)	0.91 ± 0.003	0.83 ± 0.002	within the same order of magnitude	dissociates faster at +ΔVs (Figure 7d) than −ΔVs	the association rates from the trans side are, in general, larger than peptide association from the cis side	koncis;−ΔV<koncis;+ΔV<kontrans;+ΔV<kontrans;−ΔV	63 ± 35.1	26.1 ± 8.9	83500	1200	larger at +ΔVs than at −ΔVs	almost one order of magnitude larger than that of the isoleucine-containing peptide (Pe4)	being trapped longer than Pe4 peptide inside the α-HL, as the voltage increases	associate faster to the nanopore at +ΔVs (Figure 6a, inset) than −ΔV s	koncis;−ΔV(0)<koncis;+ΔV(0)<kontrans;−ΔV(0)<kontrans;+ΔV(0)	–	–	–	–
Ac–(R)12–(I)6–(E)12–NH2 [Pe4]	–	–	–	–	–	–	–	–	–	–	–	–	–	–	–	slightly higher extent of relative blockade	0.93 ± 5.1 × 10^−4	0.83 ± 0.004	slightly faster dissociation step
